Measurements taken from patent US20250339492A1, “METHOD OF TREATING OR PREVENTING AN ADVERSE SECONDARY NEUROLOGICAL OUTCOME FOLLOWING A HAEMORRHAGIC STROKE” (CSL BEHRING AG, priority 2021, published 2025).
Entries after “also recorded” stand apart in the source; their conditions may differ.

Experiments:
[1] = system: C57BL/6J mice; experiment: striatal injection model, MRI (T2, ASL, DWI); format: in vivo; conditions: for quantification of edema size and perfusion: 24, 48 and 72 hours after striatal injection, n=4 per group, FIG. 14; for radiological changes (T2, ADC map, ASL): 24 hours after striatal injection, FIG. 13
Text: (§1) Wild-type male C57BL/6J mice (10-12 weeks) were obtained from Charles River (Sulzfeld, Germany) and maintained at the animal facility of the University of Zurich (LASC) and treated in accordance with the guidelines of the Swiss Federal Veterinary Office.
(§2) Mice were anesthetized with isoflurane (4-5% for induction, 1-2% for maintenance; Baxter Healthcare Co. Deerfield, IL, USA) evaporated in 100% oxygen. Throughout the surgical procedure, body temperature was monitored with a rectal probe and maintained constant with the use of an electronic thermostat-controlled warming blanket. Anesthetized mice were placed in a motorized stereotaxic frame (Stoelting, Dublin, Ireland) and a 1 cm long midline skin incision was made. After removal of the soft tissue covering the skull, the frame referenced to bregma and a small burrhole was drilled above the entry point for the target. Then a 33G needle was slowly advanced (0.1 mm/s) into the striatum (bregma coordinates: 2 mm ML, 0.5 mm AP, 3.5 mm DV) followed by injection of 10 μL heme-albumin (1 mM), haptoglobin (5 mM) (protein control group) or heme-hemopexin (1 mM) with an infusion rate of 100 nl/s. The needle was left in place for 5 minutes, then removed slowly and the skin incision was closed with a suture. After the surgical procedure, the animals were placed in a heated wake up box and monitored until they were fully recovered and could be transferred back to their homecage.
Mice were anesthetized with isoflurane (4-5% for induction, 1-2% for maintenance; Baxter Healthcare Co. Deerfield, IL, USA) evaporated in 100% oxygen. Throughout the imaging procedure, body temperature was monitored with a rectal probe and maintained constant with the use of a warming blanket and respiratory rate was recorded by plethysmography. Mice were placed into a 7 T small animal MRI scanner (Brucker, Germany). T2, ASL and DWI images were recorded according to a standardized protocol.

[2] = system: C57BL/6J mice; experiment: striatal injection model, behavioural testing (open field, rotarod, beam walk); format: in vivo; conditions: 24 hours after striatal injection of 10 μL, 1 mM; n=6 per group; FIG. 12
Text: as §1
as §2, with “The needle was left in place for 5 minutes, then removed slowly and the skin incision was closed with a suture.” left out
The open field exploration tests were conducted in four identical square arenas (40×40×35 cm high) made of opaque acrylic glass, located in a testing room under diffused lighting (approximately 35 Ix as measured in the center of the arenas). […] The total distance moved during 10 minutes (in cm), beginning after a 5 minutes acclimatization phase was measured.
For the rotarod behavioural testing the mice are placed on a rotating cylinder and therefore forced to walk. […] The time until the mice fall off the cylinder is measured.
For discrete neurological deficits, mice were subjected to a beam walk test. […] During the assessment, the motor function was scored by two investigators blinded to treatment.

[3] = system: porcine basilar arteries; experiment: vascular function assay, porcine basilar arteries pre-contracted with PGF2α
Procedure: The vascular function assay (FIG. 7E) was performed using fresh porcine basilar arteries obtained from a local abattoir (n=12). Vessels were pre stretched to reach 8 the optimal passive pretension as previously published (Hugelshofer et al., 2020). Then, 10 μM prostaglandin F2α (PGF2α; Sigma, Buchs, Switzerland) was used as a pre-contracting agent. In order to determine the maximum possible tension in absence of endogenous NO, L-N5-(1-Iminoethyl) ornithine hydrochloride (L-NIO; Sigma-Aldrich, Saint Louis, US-MO) at a concentration of 10 μM was added at the end of the experiment. The recorded tension was normalized to the individual NO reserve capacity of the respective vessel, i.e. the baseline tension after addition of PGF2α (0%) and the tension after addition of L-NIO at the end of the experiment (100%) (FIG. 7F). Damaged vessels with a continuous loss in tension over the duration of the experiment, resulting in a PGF2α max/L-NIO max ratio below 0.7, were excluded from the analysis (FIG. 7F). A first series of experiments was conducted to evaluate the vasoconstrictive potential of the patient CSF in the high-risk phase for SAH-SBI after aSAH and to assess the specific role of oxyHb in this process. […] In a second series of experiments, the influence of an increasing exposure to Hb on the vascular tension was assessed. […]

[4] = target: T1, CSF-Hb (Homo sapiens, UniProt P68871+P69905); experiment: oxidative potential of patient CSF after aSAH (TBARS, MDA formation) with addition of Hp or hemopexin; format: biochemical; conditions: added at equimolar concentration, patient CSF of high risk phase week 0.5-2, FIG. 5D
T1 construct: from tissue; host or cells: cerebrospinal fluid of patients after aSAH (high-risk phase, week 0.5-2)
T1 sequence (P69905 2-142 limits assumed): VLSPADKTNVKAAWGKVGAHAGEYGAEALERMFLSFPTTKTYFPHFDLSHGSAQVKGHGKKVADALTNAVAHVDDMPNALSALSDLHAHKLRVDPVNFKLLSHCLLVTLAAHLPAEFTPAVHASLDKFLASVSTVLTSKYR
T1 sequence (P68871 2-147 limits assumed): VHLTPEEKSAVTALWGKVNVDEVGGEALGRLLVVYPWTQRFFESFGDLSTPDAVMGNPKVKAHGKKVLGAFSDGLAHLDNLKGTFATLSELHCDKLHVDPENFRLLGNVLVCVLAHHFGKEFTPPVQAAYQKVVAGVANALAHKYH
Procedure: Hb used in ex vivo experiments was purified from expired human blood concentrates as previously described (Elmer et al., 2009). Hb concentrations were determined by spectral deconvolution as described above and are given as molar concentrations of total heme (1 M Hb tetramer is equivalent to 4 M heme). Hx was used in equimolar concentration to the concentration of heme measured in the test sample. For all Hb used in these studies, the fraction of ferrous oxyHb (HbFe2+O2) was always greater than 98% as determined by spectrophotometry. Purified haptoglobin (phenotype 1-1) and hemopexin from human plasma was obtained from CSL Behring.
The oxidative potential of CSF samples was quantified by measuring the formation of malondialdehyde (MDA) as the final product of lipid peroxidation after incubation with a well-defined reconstituted lipoprotein (rLP, obtained from CSL Behring, Bern, Switzerland) (FIG. 7G). Using a 96-well plate, 25 μL CSF were mixed with 5 μL rLP (3 mg/mL) and incubated at 37° C. for 24 hours. Subsequently, the concentration of MDA was measured using a thiobarbituric acid reactive substance (TBARS) assay. In short 125 μL of 750 mM trichloroacetic acid in 1 M HCl was added to the samples, followed by short vortexing and subsequent addition of 100 μL 25 mM 2-thiobarbituric acid in 1 M NaOH.
After an incubation period at 80° for 60 min, the TBARS in the supernatant were quantified. For absolute quantification of MDA, the absorption at 600 nm was subtracted from the absorption at 532 nm and the concentration was calculated with the molar extinction 9 coefficient of […]. To achieve a more sensitive but relative quantification, the fluorescence emission was measured at 550 nm, using 510 nm as excitation wavelength.

[5] = formation of heme:Hx complexes in the CSF; conditions: cell-free heme within the subarachnoid space
[6] = read-out: ability to bind heme with high affinity (Kd); cited from earlier work

Molecule	quantification of edema size and perfusion [1]	neurological function (open-field, rotarod, beamwalk testing) [2]	MDA formation (lipid peroxidation) [4]	also measured
C=CC1=C(C)c2cc3[n-]c(cc4[n-]c(cc5nc(cc1n2)C(C)=C5C=C)c(C)c4CCC(=O)O)c(CCC(=O)O)c3C.[Fe+2] [heme]	formation of a cerebral edema and a regionally decreased perfusion	impaired neurological function; also recorded: impaired neurobehavioral function		radiological changes (T2, ADC map, ASL) [1]: perilesional edema, a diffusion restriction in the ADC map and a focal perfusion deficit
Hp1-1: Purified haptoglobin (phenotype 1-1) from human plasma obtained from CSL Behring			effectively attenuated MDA formation	contractile force of basilar arteries (anti-vasospastic effect) ([3]; Hb dose escalation with equimolar haptoglobin, repeated measures ANOVA p<0.001, FIG. 5C): significantly attenuated the contractile force; MDA formation (lipid peroxidation) ([4]; listed as haptoglobin): partial inhibition
hemopexin: Purified hemopexin from human plasma obtained from CSL Behring; heme-scavenger protein		abrogates the heme-mediated impairment of neurological function	even stronger attenuation of MDA formation; also recorded: virtually blocked the formation of MDA; also recorded: surpassed the antioxidant function of haptoglobin	period of exposure sufficient to form detectable heme:Hx complexes in the CSF [5]: at least 2 minutes; Kd [6]: < 1 pM
oxyHb: Hb purified from expired human blood concentrates; fraction of ferrous oxyHb greater than 98% [reference compound]				oxyHb concentration reaching maximum contraction ([3]; FIG. 4A): 10^−5 M
heme:Hx: heme-hemopexin complex (1 mM) injected into striatum (protein, UniProt P02790 24-462, looked up, heme complex, heme-hemopexin complex (1 mM) injected into striatum) Hemopexin: TPLPPTSAHGNVAEGETKPDPDVTERCSDGWSFDATTLDDNGTMLFFKGEFVWKSHKWDRELISERWKNFPSPVDAAFRQGHNSVFLIKGDKVWVYPPEKKEKGYPKLLQDEFPGIPSPLDAAVECHRGECQAEGVLFFQGDREWFWDLATGTMKERSWPAVGNCSSALRWLGRYYCFQGNQFLRFDPVRGEVPPRYPRDVRDYFMPCPGRGHGHRNGTGHGNSTHHGPEYMRCSPHLVLSALTSDNHGATYAFSGTHYWRLDTSRDGWHSWPIAHQWPQGPSAVDAAFSWEEKLYLVQGTQVYVFLTKGGYTLVSGYPKRLEKEVGTPHGIILDSVDAAFICPGSSRLHIMAGRRLWWLDLKSGAQATWTELPWPHEKVDGALCMEKSLGPNSCSANGPGLYLIHGPNLYCYSDVEKLNAAKALPQPQNVTSLLGCTH	absent	no impairment in neurobehavioral activity		radiological changes (T2, ADC map, ASL) ([1]; listed as heme:Hpx): only minor radiological changes; also recorded: largely absent
